Laboratory results taken from patent US20160058751A1, “COMPOSITION AND METHOD FOR TREATING CANCER” (CELLWORKS GROUP, INC., priority 2013, published 2016).
Read-outs that look alike come from different tables or passages of the source.

Assays:
[1] = test system: SW48 human colon cancer cell line; assay: CellTiter 96 Aqueous One relative growth assay; assay type: cell-based; conditions: for cell viability (FIG. 81): BMS-303141 up to 20 μM, Sorafenib 3 μM and 5 μM; for cell viability (FIG. 87): ARQ-197 up to 3 μM, Atorvastatin up to 40 μM; for cell viability (FIG. 75): Sorafenib up to 5 μM, Atorvastatin up to 10 μM
Excerpt: The SW48 human colon cancer cell line was procured from ATCC (American Type Culture Collection, Manassas, Va.).

[2] = test system: HCT116 human colon cancer cell line; assay: CellTiter 96 Aqueous One relative growth assay; conditions: for cell viability (FIG. 80): BMS-303141 up to 20 μM, Sorafenib 3 μM and 5 μM; for cell viability (FIG. 86): ARQ-197 up to 3 μM; for cell viability (FIG. 86) / cell viability (FIG. 73): Atorvastatin up to 40 μM; for cell viability (FIG. 73): Sorafenib up to 5 μM
[3] = test system: H1650 human lung cancer cell line; assay: CellTiter 96 Aqueous One relative growth assay; assay type: cell-based; conditions: for relative growth percentage: BMS-303141 20 μM, alone or both; for cell viability (FIG. 91) / cell viability (FIG. 85): ARQ-197 up to 3 μM; for cell viability (FIG. 91) / cell viability (FIG. 79): BMS-303141 up to 20 μM; for cell viability (FIG. 79): Sorafenib 3 μM and 5 μM; for cell viability (FIG. 85) / cell viability (FIG. 72): Atorvastatin up to 40 μM; for cell viability (FIG. 72): Sorafenib up to 5 μM
[4] = test system: A549 human lung cancer cell line; assay: CellTiter 96 Aqueous One relative growth assay; assay type: cell-based; conditions: for relative growth percentage: BMS-303141 20 μM, alone or both; for cell viability (FIG. 90) / cell viability (FIG. 84): ARQ-197 up to 3 μM; for cell viability (FIG. 90) / cell viability (FIG. 78): BMS-303141 up to 20 μM; for cell viability (FIG. 78): Sorafenib 3 μM and 5 μM; for cell viability (FIG. 84) / cell viability (FIG. 71): Atorvastatin up to 40 μM; for cell viability (FIG. 71): Sorafenib up to 5 μM
[5] = cited from earlier work
[6] = cited from earlier work; remark: listed apart in the source
CaCo-2 = conditions: cited from earlier work
[7] = multiple species; cited from earlier work
ATP citrate lyase = target: T1, ATP citrate lyase (Homo sapiens, UniProt P53396); conditions: cited from earlier work
T1 sequence (P53396 1-1101): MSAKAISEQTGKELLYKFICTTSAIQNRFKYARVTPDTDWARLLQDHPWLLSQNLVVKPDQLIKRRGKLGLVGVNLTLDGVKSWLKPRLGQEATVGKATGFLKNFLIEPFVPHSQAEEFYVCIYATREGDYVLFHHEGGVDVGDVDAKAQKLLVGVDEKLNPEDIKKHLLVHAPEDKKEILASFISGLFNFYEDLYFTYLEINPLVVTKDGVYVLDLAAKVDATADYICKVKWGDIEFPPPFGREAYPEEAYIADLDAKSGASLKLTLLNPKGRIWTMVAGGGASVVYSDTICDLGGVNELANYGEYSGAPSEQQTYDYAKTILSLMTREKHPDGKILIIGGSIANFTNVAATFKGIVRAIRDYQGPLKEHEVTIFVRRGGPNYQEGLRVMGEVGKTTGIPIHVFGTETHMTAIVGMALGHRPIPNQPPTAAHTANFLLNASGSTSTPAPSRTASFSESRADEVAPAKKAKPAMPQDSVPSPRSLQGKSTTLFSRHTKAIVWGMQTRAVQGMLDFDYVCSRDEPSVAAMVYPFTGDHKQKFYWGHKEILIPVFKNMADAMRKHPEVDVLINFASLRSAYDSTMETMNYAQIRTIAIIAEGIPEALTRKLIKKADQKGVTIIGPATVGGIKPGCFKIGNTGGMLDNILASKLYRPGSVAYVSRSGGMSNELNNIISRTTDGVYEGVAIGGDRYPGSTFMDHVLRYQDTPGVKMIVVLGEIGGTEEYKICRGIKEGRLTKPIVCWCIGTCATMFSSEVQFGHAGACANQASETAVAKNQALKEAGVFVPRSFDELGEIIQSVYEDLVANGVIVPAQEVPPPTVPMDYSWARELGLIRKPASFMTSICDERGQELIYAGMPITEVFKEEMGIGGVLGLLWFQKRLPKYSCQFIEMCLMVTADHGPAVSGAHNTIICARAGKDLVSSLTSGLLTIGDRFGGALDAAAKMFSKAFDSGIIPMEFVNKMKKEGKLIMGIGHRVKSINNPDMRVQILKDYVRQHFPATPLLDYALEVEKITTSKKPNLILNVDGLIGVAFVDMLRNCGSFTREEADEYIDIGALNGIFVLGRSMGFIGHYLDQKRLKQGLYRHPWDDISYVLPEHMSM

[8] = XALKORI 250 mg twice daily, cited from earlier work
[9] = cited from earlier work; remark: listed apart in the source
[10] = test system: CaCo-2 human colon cancer cell line; assay: CellTiter 96 Aqueous One relative growth assay; assay type: cell-based; conditions: Sorafenib up to 5 μM, Atorvastatin up to 40 μM
[11] = cited from earlier work; remark: listed apart in the source
CAPAN1 xenograft = assay: mouse xenograft model of CAPAN1
HCT116 xenograft = assay: mouse xenograft model of HCT116
[12] = in vivo; cited from earlier work
[13] = in vivo, cited from earlier work
[14] = rats; cited from earlier work
Hep G2 cells = conditions: dose-related; cited from earlier work
[15] = single 250 mg radiolabeled dose, healthy subjects
[16] = single 250 mg radiolabeled dose
[17] = oral 100 mg solution formulation

COc1ccc(-c2ccccc2)cc1NS(=O)(=O)c1cc(Cl)cc(Cl)c1O [BMS-303141, 3,5-Dichloro-2-hydroxy-N-(4-methoxy-[1,1′-biphenyl]-3-yl)-benzenesulfonamide]
cell viability (FIG. 81) [1]: minimal decrease | relative growth percentage ([1]; Sorafenib 5 μM, BMS-303141 20 μM, alone or both, about 68 hours): about 78% | cell viability (FIG. 80) [2]: a decrease | relative growth percentage ([2]; Sorafenib 5 μM, BMS-303141 20 μM, alone or both, about 66 hours): about 54% | relative growth percentage ([3]; ARQ-197 3 μM, about 66 hours): about 76% | cell viability (FIG. 91) [3]: minor decrease | cell viability (FIG. 79) [3]: minor decrease | relative growth percentage ([3]; Sorafenib 5 μM, about 68 hours): about 76% | relative growth percentage ([4]; ARQ-197 3 μM, about 66 hours): about 105% | cell viability (FIG. 90) [4]: minor decrease | cell viability (FIG. 78) [4]: negligible decrease | relative growth percentage ([4]; Sorafenib 5 μM, about 68 hours): about 105%

Cn1cncc1[C@@](N)(c1ccc(Cl)cc1)c1ccc2c(c1)c(-c1cccc(Cl)c1)cc(=O)n2C [Tipifamib, 6-[(R)-amino-(4-chlorophenyl)-(3-methylimidazol-4-yl)methyl]-4-(3-chlorophenyl)-1-methylquinolin-2-one]
absolute oral bioavailability ([5]; healthy volunteers, fed conditions): 34% | Half-life ([5]; in vivo): 2 to 5 h | urinary excretion of unchanged drug or its metabolites, of total dose ([5]; in vivo): 13.7% | time to maximum plasma concentrations ([5]; oral administration): two to three | decrease in clearance ([5]; two-fold increase in bilirubin concentration): 6.9% | decrease in relative growth ([2]; Tipifamib 3 μM, Crizotinib 8 μM, alone or combined, about 66 hours): ~22%

O=C1NC(=O)[C@@H](c2cn3c4c(cccc24)CCC3)[C@@H]1c1c[nH]c2ccccc12 [ARQ-197, (3R,4R)-3-(5,6-dihydro-4H-pyrrolo[3,2,1-ij]quinolin-1-yl)-4-(1H-indol-3-yl)pyrrolidine-2,5-dione]
cell viability (FIG. 87) [1]: most pronounced | cell viability (FIG. 86) [2]: small decrease | cell viability (FIG. 85) [3]: negligible effect | cell viability (FIG. 91) [3]: minor decrease | mean terminal half-life (t1/2), tivantinib in plasma [6]: 11.7 h | median time to maximal concentration (tmax), tivantinib in plasma [6]: 4 h | permeability (CaCo-2 flux data) (CaCo-2): good permeability | oral bioavailability [7]: greater than 20% | cell viability (FIG. 84) [4]: a decrease | cell viability (FIG. 90) [4]: minor decrease

O=C(O)C[C@@](O)(C[C@@H](O)CCCCCCc1ccc(Cl)cc1Cl)C(=O)O [SB-201076, (2S)-2-[(2S)-8-(2,4-dichlorophenyl)-2-hydroxyoctyl]-2-hydroxybutanedioic Acid]
Ki (ATP citrate lyase; competitive inhibitor, humans): 1000 nM

C[C@@H](Oc1cc(-c2cnn(C3CCNCC3)c2)cnc1N)c1c(Cl)ccc(F)c1Cl [Crizotinib, 3-[(1R)-1-(2,6-dichloro-3-fluorophenyl)ethoxy]-5-(1-piperidin-4-ylpyrazol-4-yl)pyridin-2-amine]
patients with QTcF greater than or equal to 500 msec ([8]; 16 of 1167 patients): 1.4% | patients with increase from baseline QTcF greater than or equal to 60 msec ([8]; 51 of 1136 patients): 4.4% | time to steady state ([9]; 250 mg twice daily): ≤ 15 days | reduction of AUCinf by a high-fat meal ([9]; high-fat meal): approximately 14% | reduction of Cmax by a high-fat meal ([9]; high-fat meal): approximately 14% | mean absolute bioavailability ([9]; single 250 mg oral dose): 43% | mean apparent clearance (CL/F) ([9]; single 250 mg oral dose): 100 L/h | administered dose recovered in feces [9, 15]: 63% | administered dose recovered in urine [9, 15]: 22% | unchanged crizotinib in feces, of administered dose [9, 16]: approximately 53% | unchanged crizotinib in urine, of administered dose [9, 16]: ~2.3% | mean apparent clearance (CL/F) ([9]; steady state after 250 mg twice daily): 60 L/h

CNC(=O)c1cc(Oc2ccc(NC(=O)Nc3ccc(Cl)c(C(F)(F)F)c3)cc2)ccn1 [Sorafenib, 4-[4-[[4-chloro-3-(trifluoromethyl)phenyl]carbamoylamino]phenoxy]-N-methylpyridine-2-carboxamide]
cell viability (FIG. 81) [1]: minimal decrease | cell viability (FIG. 75) [1]: negligible effect | cell viability (FIG. 74) [10]: negligible effect | cell viability (FIG. 80) [2]: a decrease | cell viability (FIG. 73) [2]: insignificant decrease | bioavailability reduced by ([11]; high-fat meal compared to fasted state): about 29% | Half-life ([11]; in vivo): 25 to 48 h | dose excreted in feces [11, 17]: 77% | dose excreted in urine as glucuronidated metabolites [11, 17]: 19% | dose recovered ([11]; oral 100 mg solution formulation, within 14 days): 96% | share of the circulating analytes in plasma at steady-state [11]: 70-85% | body weight (CAPAN1 xenograft): not significantly affected | survival (Kaplan-Meier survival curve) (CAPAN1 xenograft): slightly prolonged survival rates | cell viability (FIG. 79) [3]: minor decrease | cell viability (FIG. 72) [3]: negligible decrease | body weight (HCT116 xenograft): not significantly affected | survival (Kaplan-Meier survival curve) (HCT116 xenograft): prolonged survival rates | inhibition of tumor volume / tumor growth (HCT116 xenograft; at 19 days): 16% | cell viability (FIG. 78) [4]: negligible decrease | cell viability (FIG. 71) [4]: negligible decrease

CCC(C)(C)C(=O)O[C@H]1C[C@@H](C)C=C2C=C[C@H](C)[C@H](CC[C@@H]3C[C@@H](O)CC(=O)O3)[C@H]21 [Simvastatin, [(1S,3R,7S,8S,8aR)-8-[2-[(2R,4R)-4-hydroxy-6-oxooxan-2-yl]ethyl]-3,7-dimethyl-1,2,3,7,8,8a-hexahydronaphthalen-1-yl]2,2-dimethylbutanoate]
Half-life [12]: 3 h

CC(C)c1c(C(=O)Nc2ccccc2)c(-c2ccccc2)c(-c2ccc(F)cc2)n1CC[C@@H](O)C[C@@H](O)CC(=O)O [Atorvastatin, (3R,5R)-7-[2-(4-fluorophenyl)-3-phenyl-4-(phenylcarbamoyl)-5-propan-2-ylpyrrol-1-yl]-3,5-dihydroxyheptanoic acid]
orally administered dose recovered in urine ([13]; po): Less than 2% | circulating inhibitory activity for HMG-CoA reductase attributed to active metabolites [13]: Approximately 70% | systemic availability of the HMG-CoA reductase inhibitory activity [13]: approximately 30% | cell viability (FIG. 87) [1]: a decrease | cell viability (FIG. 75) [1]: negligible effect | cell viability (FIG. 86) [2]: small decrease | cell viability (FIG. 73) [2]: insignificant decrease | cell viability (FIG. 85) [3]: negligible effect | cell viability (FIG. 72) [3]: negligible decrease | cell viability (FIG. 84) [4]: a decrease | cell viability (FIG. 71) [4]: negligible decrease

[O-][n+]1ccccc1 [pyridine N-oxide]
share of the circulating analytes in plasma at steady-state [11]: 9-16%

O=C(O)C[C@](O)(C[C@@H](O)CCCCCCc1ccc(Cl)cc1Cl)C(=O)O [SB-204990, (2R)-2-[(2S)-8-(2,4-dichlorophenyl)-2-hydroxyoctyl]-2-hydroxybutanedioic Acid]
direct inhibition of ATP citrate-lyase (ATP citrate lyase): does not inhibit | inhibition of cholesterol synthesis [14]: 76% | inhibition of fatty acid synthesis [14]: 39% | inhibition of cholesterol synthesis (Hep G2 cells): up to 91% | inhibition of fatty acid synthesis (Hep G2 cells): ≤ 82%
